# Source: ChEMBL document CHEMBL1201862, “PubChem BioAssay data set” (2004)
# The source made the active and inactive calls.
# Tests used:
# [1] = biological target: T1, Ubiquitin-conjugating enzyme E2 N (Homo sapiens, UniProt P61088); type: functional;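 further: Dose-response confirmation in a TR-FRET assay detecting UBC13-driven polyubiquitin chain formation, inhibition measured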
# T1 sequence (P61088 whole entry): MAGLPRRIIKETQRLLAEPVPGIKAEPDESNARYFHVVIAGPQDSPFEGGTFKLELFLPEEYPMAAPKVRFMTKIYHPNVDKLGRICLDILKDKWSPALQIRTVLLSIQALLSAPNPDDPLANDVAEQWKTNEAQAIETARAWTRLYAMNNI
# [2] = biological target: Paired box protein Pax-8 (Homo sapiens, UniProt Q06710); experiment: inhibitors of PAX8-driven TPO luciferase reporter, dose response, RMG-I cells, cherry-pick (AID 687027); type: functional, cell-based;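 further: luciferase reporter driven by Pax8 target thyroperoxidase promoter measured by SteadyGlo luminescence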
# Sequence of Paired box protein Pax-8 (Q06710 whole entry): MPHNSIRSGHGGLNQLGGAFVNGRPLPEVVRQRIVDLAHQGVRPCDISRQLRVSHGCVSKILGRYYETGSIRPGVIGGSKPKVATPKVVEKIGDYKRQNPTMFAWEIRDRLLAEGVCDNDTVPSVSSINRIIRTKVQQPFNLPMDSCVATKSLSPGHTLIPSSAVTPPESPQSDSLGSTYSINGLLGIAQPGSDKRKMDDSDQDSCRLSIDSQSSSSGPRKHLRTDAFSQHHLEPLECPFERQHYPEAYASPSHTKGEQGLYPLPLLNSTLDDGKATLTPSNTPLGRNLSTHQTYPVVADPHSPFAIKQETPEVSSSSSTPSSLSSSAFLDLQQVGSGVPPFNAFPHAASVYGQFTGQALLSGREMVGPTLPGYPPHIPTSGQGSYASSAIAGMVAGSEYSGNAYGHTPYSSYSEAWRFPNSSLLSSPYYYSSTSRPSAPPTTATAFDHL
# [3] = biological target: T2, Rac GTPase-activating protein 1 (Homo sapiens, UniProt Q9H0H5); experiment: MgcRacGAP GTPase-activating activity inhibitors, confirmation, biochemical, ADP Hunter fluorescence, primary and confirmatory (AID 624330); type: functional
# T2 sequence (Q9H0H5 whole entry): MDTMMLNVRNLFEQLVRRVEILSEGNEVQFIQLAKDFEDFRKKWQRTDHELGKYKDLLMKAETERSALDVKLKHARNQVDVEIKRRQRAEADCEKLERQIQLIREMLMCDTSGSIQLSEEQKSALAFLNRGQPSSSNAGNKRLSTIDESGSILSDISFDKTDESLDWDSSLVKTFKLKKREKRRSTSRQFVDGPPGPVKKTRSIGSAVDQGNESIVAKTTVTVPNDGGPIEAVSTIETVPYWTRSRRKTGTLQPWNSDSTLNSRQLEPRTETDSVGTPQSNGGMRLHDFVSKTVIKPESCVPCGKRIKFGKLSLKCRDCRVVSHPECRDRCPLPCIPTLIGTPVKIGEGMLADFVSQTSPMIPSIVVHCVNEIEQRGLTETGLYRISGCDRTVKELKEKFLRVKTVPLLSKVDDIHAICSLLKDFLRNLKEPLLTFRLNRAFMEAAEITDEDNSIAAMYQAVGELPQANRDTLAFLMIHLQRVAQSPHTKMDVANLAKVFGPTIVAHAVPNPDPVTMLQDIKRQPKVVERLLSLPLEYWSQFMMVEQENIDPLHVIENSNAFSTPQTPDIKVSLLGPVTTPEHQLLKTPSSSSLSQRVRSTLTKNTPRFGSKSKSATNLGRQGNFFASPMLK
# [4] = biological target: T3, Polyadenylate-binding protein 1 (Homo sapiens, UniProt P11940); experiment: PABP1 MLLE–PAM2 interaction inhibitors, dose response, miRNA deadenylation inhibitor project, biochemical, fluorescence polarization, Cy5-PAM2 peptide, secondary (AID 602260); type: functional; conditions: read-out: IC50_Mean
# T3 sequence (P11940 whole entry): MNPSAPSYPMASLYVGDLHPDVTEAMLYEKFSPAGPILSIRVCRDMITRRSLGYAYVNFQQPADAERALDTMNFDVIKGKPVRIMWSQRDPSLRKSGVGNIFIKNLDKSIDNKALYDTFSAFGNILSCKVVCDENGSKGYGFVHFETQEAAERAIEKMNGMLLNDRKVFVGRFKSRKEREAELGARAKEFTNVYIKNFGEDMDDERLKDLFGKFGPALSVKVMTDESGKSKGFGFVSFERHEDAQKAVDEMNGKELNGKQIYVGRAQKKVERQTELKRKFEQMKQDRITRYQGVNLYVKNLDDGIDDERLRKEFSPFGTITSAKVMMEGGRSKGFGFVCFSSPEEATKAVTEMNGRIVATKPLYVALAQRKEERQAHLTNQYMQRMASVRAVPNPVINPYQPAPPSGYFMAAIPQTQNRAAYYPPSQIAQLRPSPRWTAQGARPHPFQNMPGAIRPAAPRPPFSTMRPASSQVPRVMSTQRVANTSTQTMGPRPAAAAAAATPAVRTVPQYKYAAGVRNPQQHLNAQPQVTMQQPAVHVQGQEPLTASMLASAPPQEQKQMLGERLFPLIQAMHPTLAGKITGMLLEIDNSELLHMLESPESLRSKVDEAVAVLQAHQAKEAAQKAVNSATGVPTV
# [5] = biological target: T3, Polyadenylate-binding protein 1; experiment: PABP1 MLLE–PAM2 binding inhibitor potency, dose response, biochemical, fluorescence polarization, FITC-PAM2 peptide (AID 602259); type: functional; conditions: read-out: IC50_Mean
# [6] = system: Streptococcus; experiment: Group A Streptococcus viability loss, dose response, counter-screen for streptokinase expression inhibitor project, luminescence, BacTiterGlo (AID 1915); type: functional, organism-based;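 further: potency for reduction of bacterial viability or growth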
# [7] = system: Streptococcus sp. 'group A'; experiment: growth inhibition of control SK(-) GAS strain, dose response, counter-screen for streptokinase expression inhibitor project, luminescence, kanamycin, BacTiterGlo, confirmation (AID 1900); type: functional, organism-based
# [8] = biological target: T4, Streptokinase A (Streptococcus pyogenes serotype M1, UniProt P10520); experiment: S. pyogenes streptokinase expression inhibitors, potency, dose response, plasminogen activation absorbance, OD405 (AID 1914); type: functional, Streptococcus pyogenes M1 GAS;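 further: secreted streptokinase activity via plasminogen activation per viability signal from cell pellet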
# T4 sequence (P10520 whole entry): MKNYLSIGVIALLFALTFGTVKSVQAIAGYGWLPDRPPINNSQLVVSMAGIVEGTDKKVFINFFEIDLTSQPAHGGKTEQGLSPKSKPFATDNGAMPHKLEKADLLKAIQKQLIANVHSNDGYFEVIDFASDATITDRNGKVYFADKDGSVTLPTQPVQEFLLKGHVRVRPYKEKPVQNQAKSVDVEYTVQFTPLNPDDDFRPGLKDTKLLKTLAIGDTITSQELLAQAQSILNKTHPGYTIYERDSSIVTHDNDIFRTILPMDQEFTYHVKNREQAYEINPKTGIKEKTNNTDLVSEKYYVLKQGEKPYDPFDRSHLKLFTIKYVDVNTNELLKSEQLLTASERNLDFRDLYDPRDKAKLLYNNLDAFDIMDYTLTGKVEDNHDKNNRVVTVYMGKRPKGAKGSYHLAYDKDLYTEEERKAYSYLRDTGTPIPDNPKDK
# [9] = biological target: Genome polyprotein (dengue virus type 2, UniProt P29990); experiment: Dengue-2 NS5 methyltransferase inhibitors, primary screen, biochemical, confirmation dose response (AID 588689); type: functional
# Sequence of Genome polyprotein (P29990 2492-3391 limits assumed): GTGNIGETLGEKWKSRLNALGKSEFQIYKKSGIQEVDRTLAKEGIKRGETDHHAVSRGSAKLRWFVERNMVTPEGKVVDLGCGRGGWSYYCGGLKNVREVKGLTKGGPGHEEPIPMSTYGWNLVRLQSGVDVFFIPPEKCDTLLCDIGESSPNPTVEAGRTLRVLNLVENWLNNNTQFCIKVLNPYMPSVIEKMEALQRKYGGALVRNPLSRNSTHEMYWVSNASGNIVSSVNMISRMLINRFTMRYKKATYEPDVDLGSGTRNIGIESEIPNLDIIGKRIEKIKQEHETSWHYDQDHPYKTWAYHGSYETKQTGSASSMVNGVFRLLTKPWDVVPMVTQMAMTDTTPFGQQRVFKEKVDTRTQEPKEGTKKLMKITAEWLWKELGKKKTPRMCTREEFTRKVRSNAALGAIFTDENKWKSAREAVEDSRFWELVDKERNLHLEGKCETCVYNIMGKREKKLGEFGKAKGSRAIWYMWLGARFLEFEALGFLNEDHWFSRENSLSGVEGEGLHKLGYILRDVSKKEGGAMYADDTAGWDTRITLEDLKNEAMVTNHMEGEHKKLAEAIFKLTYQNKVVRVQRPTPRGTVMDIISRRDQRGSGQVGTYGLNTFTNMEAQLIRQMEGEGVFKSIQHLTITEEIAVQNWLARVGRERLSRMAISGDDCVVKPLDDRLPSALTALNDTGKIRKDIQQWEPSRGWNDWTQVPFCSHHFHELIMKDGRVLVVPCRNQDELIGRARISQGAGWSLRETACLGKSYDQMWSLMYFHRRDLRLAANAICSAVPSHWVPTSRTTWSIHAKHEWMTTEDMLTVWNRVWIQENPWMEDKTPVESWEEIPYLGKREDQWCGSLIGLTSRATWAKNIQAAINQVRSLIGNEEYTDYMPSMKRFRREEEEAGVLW
# [10] = biological target: T5, Calpain-2 catalytic subunit (Sus scrofa, UniProt P43367); experiment: pig calpain II inhibitor potency, dose response, biochemical, fluorogenic peptide substrate (AID 1420); type: functional
# T5 sequence (P43367 whole entry): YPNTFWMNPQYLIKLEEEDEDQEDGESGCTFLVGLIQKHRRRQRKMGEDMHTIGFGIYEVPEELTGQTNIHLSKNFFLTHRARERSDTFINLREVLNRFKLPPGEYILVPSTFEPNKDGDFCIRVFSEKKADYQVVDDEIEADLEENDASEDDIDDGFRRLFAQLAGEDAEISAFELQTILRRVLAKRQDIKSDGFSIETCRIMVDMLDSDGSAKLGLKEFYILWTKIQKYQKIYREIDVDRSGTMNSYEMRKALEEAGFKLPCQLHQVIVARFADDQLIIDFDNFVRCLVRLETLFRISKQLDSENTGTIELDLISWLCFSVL
# [11] = biological target: T6, Protein skinhead-1 (Caenorhabditis elegans, UniProt P34707); type: functional
# T6 sequence (P34707 whole entry): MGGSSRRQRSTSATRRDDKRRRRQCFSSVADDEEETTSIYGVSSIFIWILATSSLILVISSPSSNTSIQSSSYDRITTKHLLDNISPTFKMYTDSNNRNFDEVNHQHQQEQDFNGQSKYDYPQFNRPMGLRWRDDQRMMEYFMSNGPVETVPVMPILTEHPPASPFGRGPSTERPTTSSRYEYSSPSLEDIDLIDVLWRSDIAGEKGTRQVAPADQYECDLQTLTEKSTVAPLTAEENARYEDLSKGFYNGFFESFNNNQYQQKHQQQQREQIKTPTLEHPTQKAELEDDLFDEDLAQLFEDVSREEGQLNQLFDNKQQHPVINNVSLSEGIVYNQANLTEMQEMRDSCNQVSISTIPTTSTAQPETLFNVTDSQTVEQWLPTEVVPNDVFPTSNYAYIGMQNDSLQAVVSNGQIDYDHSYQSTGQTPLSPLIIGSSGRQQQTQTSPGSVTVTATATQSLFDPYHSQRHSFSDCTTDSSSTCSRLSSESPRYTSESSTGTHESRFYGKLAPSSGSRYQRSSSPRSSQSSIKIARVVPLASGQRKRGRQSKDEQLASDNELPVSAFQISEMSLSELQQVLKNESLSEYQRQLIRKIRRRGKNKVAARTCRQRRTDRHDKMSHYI
# [12] = inhibitors of HIV Env-driven cell fusion, dose response, cherry-pick (AID 652057); type: functional, cell-based
# [13] = inhibitors of clade B AD8 Env fusion, dose response, cell-based, cherry-pick (AID 652062); type: functional;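 further: luciferase signal from cell-cell fusion driven by HIV-1 clade B AD8 Env; potency is for inhibitors of fusion seen as a drop in luminescence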
# [14] = biological target: T7, Long-chain-fatty-acid--AMP ligase FadD28 (Mycobacterium tuberculosis, UniProt P9WQ59); experiment: Fluorescence polarization aasay to screen for inhibitors that compete for the binding of FadD28 to a bisubstrate Measured in Biochemical System Using Plate Reader - 2147-01_Inhibitor_Dose_CherryPick_Activity.; type: functional, Mycobacterium tuberculosis H37Rv
# T7 sequence (P9WQ59 whole entry): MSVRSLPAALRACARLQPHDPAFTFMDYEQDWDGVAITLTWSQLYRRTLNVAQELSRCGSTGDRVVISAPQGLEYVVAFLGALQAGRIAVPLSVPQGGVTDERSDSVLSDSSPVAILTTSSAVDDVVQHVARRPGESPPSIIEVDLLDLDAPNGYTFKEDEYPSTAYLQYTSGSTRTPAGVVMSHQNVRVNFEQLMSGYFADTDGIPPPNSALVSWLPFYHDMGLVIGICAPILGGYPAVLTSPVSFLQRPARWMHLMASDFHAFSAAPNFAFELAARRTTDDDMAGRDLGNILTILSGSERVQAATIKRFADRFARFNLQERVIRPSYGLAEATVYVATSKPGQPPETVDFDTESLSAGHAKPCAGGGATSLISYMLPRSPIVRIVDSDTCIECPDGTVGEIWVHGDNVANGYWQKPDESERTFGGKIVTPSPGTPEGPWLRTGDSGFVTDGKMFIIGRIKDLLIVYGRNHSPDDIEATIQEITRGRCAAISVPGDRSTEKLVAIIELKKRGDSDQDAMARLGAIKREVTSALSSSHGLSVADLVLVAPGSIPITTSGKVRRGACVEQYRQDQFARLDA
# [15] = biological target: Induced myeloid leukemia cell differentiation protein Mcl-1 (Homo sapiens, UniProt Q07820); type: functional
# Sequence of Induced myeloid leukemia cell differentiation protein Mcl-1 (Q07820 whole entry): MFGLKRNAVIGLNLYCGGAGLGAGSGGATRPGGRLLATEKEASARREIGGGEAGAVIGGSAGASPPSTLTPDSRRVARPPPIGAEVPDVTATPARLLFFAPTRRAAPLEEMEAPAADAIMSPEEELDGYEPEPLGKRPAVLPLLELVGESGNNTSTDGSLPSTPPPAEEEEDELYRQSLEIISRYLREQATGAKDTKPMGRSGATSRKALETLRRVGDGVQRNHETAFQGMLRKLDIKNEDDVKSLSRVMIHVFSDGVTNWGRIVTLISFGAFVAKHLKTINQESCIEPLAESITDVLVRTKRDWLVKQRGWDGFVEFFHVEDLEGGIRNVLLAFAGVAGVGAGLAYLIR
# [16] = cells; type: functional, cell-based
# [17] = cells; type: functional, cell-based; remark: listed apart in the source
smiles,measurement,setting,value
CCC[C@@H](CN1CCC[C@H]1CN1C(N)=NC[C@H]1C(C)C)N1C[C@@H]([C@H](C)CC)N(CCCC2CCCC2)C1=N,IC50,[1],> 20 µM (inactive)
CC(C)(C)N(Cc1ccc2c(c1)OCO2)C(=O)/C=C\[S+]([O-])c1ccccc1 (stereo not given),AC50,[2],6.14 µM (active)
same,IC50,[3],125 µM (active)
CCOCCCn1c(=N)c(S(=O)(=O)c2ccc(C)cc2)cc2c(=O)n3cc(C)ccc3nc21,IC50,[4],> 66 µM (inactive)
same,IC50,[5],53.1 µM (inactive)
COCCNC(=O)c1c(NC(=O)c2ccco2)n(Cc2ccccc2)c2nc3ccccc3nc12,EC50,[6],> 150 µM (not active)
same,EC50,[7],12.8 µM (active)
same,EC50,[8],> 150 µM (not active)
same,IC50,[9],> 100 µM (active)
C=CCc1cc(C)ccc1OCCCn1ccnc1,IC50,[3],127 µM (active)
COc1cccc(CNc2ccc(F)c([N+](=O)[O-])c2)c1O,IC50,[10],7.78 µM (active)
COc1ccccc1N1CCN(C(=O)[C@H](C)NS(=O)(=O)c2ccc3c(c2)OCCCO3)CC1,IC50,[4],> 66 µM (inactive)
same,IC50,[5],> 66 µM (inactive)
N#C/C(=C\c1cccs1)C(=O)c1ccccc1,IC50,[9],> 100 µM (active)
COC(=O)C1=C(C)N(CC2CC2)C(NCc2cccc(C(F)(F)F)c2)=N[C@H]1c1ccccc1,IC50,[1],> 20 µM (inactive)
C=CCSc1nnc2c(n1)-c1cccc3cccc-2c13,IC50,[11],18.2 µM (active)
COc1cc(/C=N/NC(=O)CNC(=O)c2ccc3c(c2)OCCO3)ccc1O,IC50,[3],54.9 µM (active)
c1ccc(-c2csc(-c3cccnc3)n2)cc1,IC50,[11],40.4 µM (active)
C=CCn1c(SCC(=O)c2c(N)n(C)c(=O)n(C)c2=O)nnc1-c1ccoc1C,IC50,[11],> 100 µM (inactive)
Cc1cc(NC(=O)CSc2nc3sc4c(c3c(=O)n2C)CCCC4)no1,IC50,[10],25.2 µM (not active)
O=C1c2cccc3cccc(c23)C(=O)N1CCCN1CCN(c2ccc(F)cc2)CC1,IC50,[10],8.84 µM (not active)
O=C(Nc1ccc2oc(-c3ccccc3)nc2c1)c1cccnc1,IC50,[11],> 100 µM (inactive)
COc1cccc(S(=O)(=O)N(C)C[C@@H]2Oc3cc(C#CCC(C)C)ccc3S(=O)(=O)N([C@H](C)CO)C[C@@H]2C)c1,AC50,[12],20.1 µM (active)
same,AC50,[13],17.9 µM (active)
CCCCn1c(S)nnc1-c1csc(CCC)c1,IC50,[10],24.1 µM (not active)
COc1cccc(NC(=O)Cn2c(=O)oc3ccccc32)c1,AC50,[14],8.71 µM (active)
COc1ccc2c(c1)Cc1cc(NC(=O)c3ccccc3-c3ccccc3C(=O)O)ccc1-2,AC50,[14],89.9 µM (active)
same,IC50,[9],46.3 µM (active)
Cc1c(N2C(=O)/C(=C3\C(=O)N(CC(=O)O)c4ccccc43)SC2=S)c(=O)n(-c2ccccc2)n1C,IC50,[4],> 66 µM (inactive)
same,IC50,[5],> 66 µM (inactive)
O=C1NC(=S)N(c2ccccc2F)C(=O)/C1=C\c1cccs1,IC50,[15],2.07 µM (active)
same,IC50,[9],70.3 µM (active)
COc1cc(/C=C2/SC(NS(=O)(=O)Cc3ccccc3)=NC2=O)c([N+](=O)[O-])cc1OC,IC50,[9],76.1 µM (active)
O=C(c1nc2ccccn2c1CN1CCCC(O)C1)N1CCN(C2CCCCC2)CC1 (stereo not given),IC50,[4],> 66 µM (inactive)
same,IC50,[5],> 66 µM (inactive)
CC[C@@H](C)[C@@H]1CN([C@@H](CN2CCC[C@H]2CN2C(N)=NC[C@H]2C(C)C)C(C)C)C(=N)N1CCCC1CCCC1,IC50,[1],> 20 µM (inactive)
Cc1onc(-c2c(F)cccc2Cl)c1C(=O)NC(=S)NC1CCSC1=O (stereo not given),IC50,[4],> 66 µM (inactive)
same,IC50,[5],> 66 µM (inactive)
Cc1c(C(=O)NC(=S)Nc2ccc3c4c(cccc24)CC3)cccc1[N+](=O)[O-],IC50,[4],> 66 µM (inactive)
same,IC50,[5],> 66 µM (inactive)
COc1ccc(C(=O)OCC(=O)c2ccccc2)cc1S(=O)(=O)N1CCOCC1,AC50,[14],> 100 µM (inactive)
O=C(CSc1nc(O)cc(=O)n1-c1ccccc1)Nc1nc2ccccc2s1,AC50,[14],32 µM (active)
Oc1nncc(N/N=C\c2cccs2)c1Cl,EC50,[16],> 29.9 µM (inactive)
same,IC50,[17],> 29.9 µM (inactive)
O=C(O)c1ccccc1SC1CC(=O)N(c2ccc3c(c2)OCO3)C1=O (stereo not given),IC50,[4],> 66 µM (inactive)
same,IC50,[5],> 66 µM (inactive)
COC(=O)Nc1ccc(SCC(=O)c2cccc([N+](=O)[O-])c2)cc1,IC50,[4],> 66 µM (inactive)
same,IC50,[5],> 66 µM (inactive)
O=c1c(-c2ccc(O)cc2)coc2cc(O)ccc12 [DAIDZEIN],IC50,[3],91.3 µM (active)
Cc1cc2c(C)ccc(C)c2nc1SCC(=O)c1cccs1,IC50,[10],< 0.4 µM (not active)
